# Experimental data taken from patent US7547532B2, “Three-dimensional structure of prostaglandin D synthase and utilization thereof” (Japan Science and Technology Agency, priority 2001, dated 2009).
# Key:
# hematopoietic PGDS = hematopoietic PGDS (Homo sapiens, UniProt O60760); assay: PGDS enzymatic activity: conversion of PGH2 to PGD2 (confirmation of inhibitors); format: biochemical; details: metal ion in center of PGDS dimer
# Text: After a candidate compound for inhibition of hematopoietic PGDS is thus selected, the selected compound is contacted with the enzyme in the presence of the substrate (prostaglandin H2) to confirm the compound can inhibit the enzymatic activity (Shimizu, T., Yamamoto, S., and Hayaishi, O. (1979). Purification and properties of prostaglandin D synthase from rat brain. J. Biol. Chem. 254, 5222-5228). The measurement of enzymatic activity is, for example, carried out as follows: The substrate [1-^14C]prostaglandin(PG)H2 is prepared by reacting [1-^14C]arachidonic acid with cyclooxygenase. Since PGH2 is easily decomposed in aqueous solution (half-life: about 5 minutes), it is dried and stored at a low temperature (−80° C.). […] After the development, radioactivity of PGD2 fraction and other fraction are measured and the enzyme activity is calculated from the ratio of conversion to PGD2.
# Alternatively, enzyme reaction is carried out using commercially available non-labeled PGH2. After the reaction, PGH2 is decomposed to 12(S)-hydroxy-8,10-trans-5-cis-heptadecatrienolic acid with the treatment by FeCl2 before quantifying with reverse phase HPLC using 11-β-PGE2 as an internal standard or commercially available ELISA to quantify PGD2.
# human hematopoietic PGDS = target: T1, human hematopoietic PGDS (Homo sapiens, UniProt O60760, N144M); assay: Glutathione binding/affinity to PGDS with metal ion; details: metal ion in center of PGDS dimer
# T1 construct: made in house; host or cells: Escherichia coli BL21 (DE-3), plasmid pT7-7hPGDS
# allergic reaction = details: known from Matsushita et al. 1998, various experimental models; cited from earlier work
# [1] = cited from earlier work
# sleep condition = details: administered in the ventricle of the brain of a mouse; cited from earlier work
# T1 sequence (O60760 2-199 N144M): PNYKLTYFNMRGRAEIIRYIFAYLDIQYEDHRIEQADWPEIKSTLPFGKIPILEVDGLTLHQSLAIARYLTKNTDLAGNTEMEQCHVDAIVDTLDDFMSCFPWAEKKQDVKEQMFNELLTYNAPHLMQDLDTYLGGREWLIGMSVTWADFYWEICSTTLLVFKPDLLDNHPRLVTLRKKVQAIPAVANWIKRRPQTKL
# hematopoietic PGDS, sequence (O60760 whole entry): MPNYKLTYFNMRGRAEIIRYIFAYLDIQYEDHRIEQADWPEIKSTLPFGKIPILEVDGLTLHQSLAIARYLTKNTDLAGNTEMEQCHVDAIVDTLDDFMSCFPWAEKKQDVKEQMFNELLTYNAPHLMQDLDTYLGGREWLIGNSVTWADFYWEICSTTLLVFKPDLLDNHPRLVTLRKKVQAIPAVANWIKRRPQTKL
compound,measurement,setting,value
Calcium,effect on reaction rate of PGDS enzyme,hematopoietic PGDS,increases the reaction rate of PGDS enzyme
same,influence on glutathione binding,human hematopoietic PGDS,no influence on the glutathione binding
"c1ccc(C(OC2CCN(CCCc3nnn[nH]3)CC2)c2ccccc2)cc1 [HQL-79, 4-benzhydryloxy-1-{3-(1H-tetrazol-5-yl)-propyl}piperidine]",anti-allergic activity,allergic reaction,anti-allergic activity
"CCCCC[C@H](O)/C=C/[C@@H]1[C@@H](C/C=C\CCCC(=O)O)[C@@H]2C[C@H]1OO2 [PGH2, prostaglandin H2]",half-life in aqueous solution,[1],about 5 minutes
Magnesium,increase of affinity of glutathione to PGDS,human hematopoietic PGDS,more than 3 times
"CCCCC[C@H](O)/C=C/[C@H]1C(=O)C[C@H](O)[C@@H]1C/C=C\CCCC(=O)O [prostaglandin D2, Prostaglandin D2]",effect on sleep,sleep condition,sleep is induced
